Measurements: patent publication US12419936B2, “Collagen peptide-based medicament compositions and devices and methods of production and use thereof” (SUSTAIN HOLDINGS, LLC, priority 2019, dated 2025)

What was measured:
[1] = cited from earlier work; for melting temperature of a triple helix: Sakakibara et al. 1973
ARPE19 cells = test: Adherence of RPE cells to MMP-1-digested (cut) collagen plates treated with CMP; format: cell-based, human; details: 100 μM CMP on cut collagen; 19 hours
Experimental: (§1) Plates were then rinsed with culture medium, and ARPE-19 cells were plated uniformly on plates having one of three surface coating conditions: (1) intact collagen; (2) cut collagen; and (3) cut collagen+CMP. Plates were then incubated at 37° C. for 19 hours, and then examined for cell adherence by phase contrast microscopy.

[2] = tested on: dorsal root ganglia (DRG) neurons; test: Neurite outgrowth in dorsal root ganglion neurons on cut collagen plates treated with CMP; format: cell-based, rat; details: 100 μM CMP on cut collagen; 48 hours
Experimental: as §1, with “DRG neuronal” for “ARPE-19”, “48” for “19”, “morphology and neurite outgrowth” for “cell adherence”, “inverted brightfield” for “phase contrast”

[3] = tested on: corneal epithelium in wounded mouse eyes; test: In vivo healing of mouse corneal epithelium, wound size by fluorescein staining; details: 100 ng/ml EGF, positive control; 16 hours post-treatment
Text: To examine the possible therapeutic effects of CMPs and CMP-TC conjugates of the invention, studies were designed to test certain CMPs and CMP-TC conjugates in an in vivo setting—the healing of the corneal epithelium in wounded mouse eyes. Female mice (8-week-old C57BL/6; seven mice per sample tested) were anesthetized, and corneas of the mouse eyes were wounded with a 1.5 mm superficial epithelial wound of sufficient depth to expose the anterior stroma thereby damaging and exposing the collagen matrix. […] Following wounding, corneas were treated with 25 nM (about 3 mg/kg) CMPs or CMP-TC conjugates, in aqueous PBS. Negative control mice were treated with vehicle only (PBS), and positive control mice were treated with 100 ng/ml epidermal growth factor (EGF). Wound size at various time points over 48 hours was examined by fluorescein staining (see Carlson et al., id.), and documented via fluorescent photomicrography, and quantified using Image J software (see Rush, J. S. et al., Investig. Ophthalmol. Visual Sci. 57 (14): 5864-5871 (2016); Rush, J. S. et al., Investig. Ophthalmol. Visual Sci. 55 (8): 4691-4699 (2014)).

Substance | melting temperature of a triple helix [1] [°C] | adherence of RPE cells, quantitative, normalized to cut collagen (ARPE19 cells) | also measured
(ProHypGly)10 | 58 | – | rate at which chains fold into a triple helix ([1]; relative to (ProProGly)10, Chopra and Ananthanarayanan 1982): substantially greater
(ProProGly)10 | 24 | – | –
Flp-Hyp-Gly-Flp-Hyp-Gly-Flp-Hyp-Gly-Flp-Hyp-Gly-Flp-Hyp-Gly-Flp-Hyp-Gly-Flp-Hyp-Gly [CMP B] | – | significantly increased adhesion | adherence of RPE cells in photomicrographs vs. cut collagen plates (ARPE19 cells): increased adherence
Pro-Flp-Gly-Pro-Flp-Gly-Pro-Cys-Gly-Pro-Flp-Gly-Pro-Flp-Gly-Pro-Flp-Gly-Pro-Flp-Gly [CMP D] | – | significantly increased adhesion | length of the longest neurite normalized to cut collagen [2]: even exceeded that observed with intact collagen
epidermal growth factor [EGF, positive control in the corneal wound model, 100 ng/ml] | – | – | wound healing in mouse cornea and corneal stroma (diameter and intensity of fluorescein fluorescence) [3]: lower level of healing
